These results are taken from patent US8729102B2, “Bicyclic compound” (Takeda Pharmaceutical Company Limited, priority 2010, dated 2014).

SMILES strings stand for the structures.

The target in one test is T1, Human ACC2 (ACC2 (Nd), N terminal deleted) (Homo sapiens, UniProt O00763).
T1 construct: made in house; host or cells: SF-9 insect cells (baculovirus)
T1 sequence (O00763 117-2458 limits assumed, stated change not applied): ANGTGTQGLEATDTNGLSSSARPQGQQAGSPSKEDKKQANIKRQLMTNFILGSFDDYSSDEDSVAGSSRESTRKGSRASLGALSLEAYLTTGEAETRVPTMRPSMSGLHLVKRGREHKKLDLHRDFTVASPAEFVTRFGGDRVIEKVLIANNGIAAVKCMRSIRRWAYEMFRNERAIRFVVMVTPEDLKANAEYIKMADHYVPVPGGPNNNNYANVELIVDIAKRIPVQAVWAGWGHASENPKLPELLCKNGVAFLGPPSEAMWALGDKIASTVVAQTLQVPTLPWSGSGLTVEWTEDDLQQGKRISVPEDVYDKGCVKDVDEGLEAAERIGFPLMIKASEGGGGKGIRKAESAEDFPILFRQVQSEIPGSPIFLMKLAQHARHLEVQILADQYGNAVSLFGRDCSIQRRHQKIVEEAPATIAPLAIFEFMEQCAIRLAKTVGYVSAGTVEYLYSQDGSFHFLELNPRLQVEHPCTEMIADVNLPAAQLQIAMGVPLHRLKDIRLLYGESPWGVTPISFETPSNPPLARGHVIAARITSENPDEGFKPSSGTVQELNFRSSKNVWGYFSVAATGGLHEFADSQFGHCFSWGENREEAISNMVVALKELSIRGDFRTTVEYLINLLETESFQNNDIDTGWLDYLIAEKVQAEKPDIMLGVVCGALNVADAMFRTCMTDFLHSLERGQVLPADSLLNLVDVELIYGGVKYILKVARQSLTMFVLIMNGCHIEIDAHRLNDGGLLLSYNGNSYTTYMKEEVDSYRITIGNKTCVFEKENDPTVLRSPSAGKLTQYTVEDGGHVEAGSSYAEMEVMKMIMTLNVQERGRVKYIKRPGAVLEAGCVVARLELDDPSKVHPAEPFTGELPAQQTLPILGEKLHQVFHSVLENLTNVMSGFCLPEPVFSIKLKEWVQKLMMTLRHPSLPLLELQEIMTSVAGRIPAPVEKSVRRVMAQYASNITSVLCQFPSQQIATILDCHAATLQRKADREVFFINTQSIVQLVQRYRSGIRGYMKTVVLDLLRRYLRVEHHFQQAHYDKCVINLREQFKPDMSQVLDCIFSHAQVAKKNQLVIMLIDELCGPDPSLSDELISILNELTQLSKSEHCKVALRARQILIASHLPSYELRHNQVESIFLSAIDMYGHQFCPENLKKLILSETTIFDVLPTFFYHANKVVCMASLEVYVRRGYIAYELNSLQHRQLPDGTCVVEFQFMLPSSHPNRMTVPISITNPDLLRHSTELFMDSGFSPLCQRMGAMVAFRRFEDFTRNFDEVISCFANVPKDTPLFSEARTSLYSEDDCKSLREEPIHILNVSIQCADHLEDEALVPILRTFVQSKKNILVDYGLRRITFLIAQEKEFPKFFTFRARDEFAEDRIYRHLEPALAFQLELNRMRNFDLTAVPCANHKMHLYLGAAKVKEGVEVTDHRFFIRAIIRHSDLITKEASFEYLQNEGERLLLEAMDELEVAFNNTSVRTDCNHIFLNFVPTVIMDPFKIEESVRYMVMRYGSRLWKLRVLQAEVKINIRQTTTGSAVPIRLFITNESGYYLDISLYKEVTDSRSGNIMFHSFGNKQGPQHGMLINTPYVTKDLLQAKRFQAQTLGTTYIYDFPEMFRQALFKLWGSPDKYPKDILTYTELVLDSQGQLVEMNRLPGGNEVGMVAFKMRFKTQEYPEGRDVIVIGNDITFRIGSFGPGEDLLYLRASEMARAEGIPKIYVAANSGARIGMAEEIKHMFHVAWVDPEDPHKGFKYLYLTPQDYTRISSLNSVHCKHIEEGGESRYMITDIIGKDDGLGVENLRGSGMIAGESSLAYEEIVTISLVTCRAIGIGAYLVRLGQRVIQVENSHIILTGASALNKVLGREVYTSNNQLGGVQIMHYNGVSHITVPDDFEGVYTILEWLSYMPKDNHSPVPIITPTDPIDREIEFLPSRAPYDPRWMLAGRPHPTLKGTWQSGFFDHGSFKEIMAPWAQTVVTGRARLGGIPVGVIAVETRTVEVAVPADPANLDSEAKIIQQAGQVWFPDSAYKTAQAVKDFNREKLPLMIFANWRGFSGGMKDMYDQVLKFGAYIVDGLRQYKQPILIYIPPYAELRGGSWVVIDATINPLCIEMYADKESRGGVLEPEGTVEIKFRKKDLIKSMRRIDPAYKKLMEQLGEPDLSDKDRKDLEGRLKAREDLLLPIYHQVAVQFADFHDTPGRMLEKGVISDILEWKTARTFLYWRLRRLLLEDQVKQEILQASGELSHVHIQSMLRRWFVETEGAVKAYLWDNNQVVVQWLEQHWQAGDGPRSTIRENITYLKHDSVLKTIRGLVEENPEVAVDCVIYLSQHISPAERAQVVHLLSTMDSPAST
In words: Measurement of ACC2 inhibitory activity (malachite green, recombinant ACC2 (Nd)). Type of test: biochemical. To be noted: 10 μM test compound; 20 min preincubation at 30° C., 20 min reaction; 10 µM. As for the experimental part: The ACC2 inhibitory action of the compound of the present invention was evaluated by the following method.
(1) Cloning of Human ACC2 Gene and Preparation of Recombinant Baculovirus
Human ACC2 gene was cloned by PCR using a human skeletal muscle cDNA library (Clontech) as a template and Primer 1 and Primer 2 shown below. Primer 1 and Primer 2 were prepared by adding SalI, XbaI restriction enzyme recognition sequences based on the information of the base sequence of human ACC2 gene (Genbank Accession U89344).
PCR was performed using Pyrobest DNA polymerase (TAKARA BIO INC.). The obtained PCR product was cloned to pT7 Blue vector (Novagen) and after confirmation of the base sequence, digested with restriction enzymes SalI and XbaI. The obtained DNA fragment was inserted into pFAST-BacHTa (Invitrogen) digested with restriction enzymes Sail and XbaI to give expression plasmid ACC2/pFAST-BacHTa.
A plasmid for expression of ACC2 without a mitochondrial targeting sequence was prepared by PCR using the expression plasmid as a template, and Primer 3 (salI restriction enzyme recognition sequence was added) and Primer 4, which are prepared by reference to the information of human ACC2 gene base sequence (Genbank Accession U89344).
PCR was performed using Pyrobest-DNA polymerase (TAKARA BIO INC.). The obtained PCR product was cloned to pT7 Blue vector (Novagen) and after confirmation of the base sequence, digested with restriction enzymes SalI and Aflil. The obtained DNA fragment was inserted into ACC2/pFAST-BacHTa digested with restriction enzymes SalI and AfilI to give expression plasmid ACC2mito7/pFAST-BacHTa.
Using the expression plasmid ACC2mito7/pFAST-BacHTa and BAC-TO-BAC Baculovirus Expression System (Invitrogen), virus stock BAC-ACC2 of recombinant Baculovirus (N terminal deleted (hereinafter Nd)) was prepared.
(2) Preparation of ACC2 (Nd) Protein
SF-9 cells (Invitrogen) were inoculated to a medium (2 L) for insect cells (Sf-900IISFM medium (Invitrogen) containing 10% fetal bovine serum (Trace), 50 mg/L Gentamicin (Invitrogen), 0.1% Pluronic F-68 (Invitrogen)) at 0.5×10^6 cells/mL, and cultured with shaking in Wave Bioreactor (Wave) at 27° C., 20 rpm, rocking angle 6°, oxygen concentration 30%.
On day 4 of the culture, 3 L of the medium for insect cells was added, the rocking angle was set to 8°, and the cells were further cultured. On day 5 of the culture, 100 mL of recombinant Baculovirus BAC-ACC2 (Nd) was added, 5 L of the medium for insect cells was further added, the rocking angle was set to 11°, and the cells were cultured for 3 days. The culture medium was centrifuged at 1000×g for 10 min to give virus-infected cells. The cells were washed with phosphate buffered saline (Invitrogen) and centrifuged under the same conditions. The obtained cells were cryopreserved at −80° C.
The cryopreserved cells were thawed in ice and suspended in 900 mL of 25 mM HEPES buffer (pH 7.5) containing 10% Glycerol, 0.13 M NaCl, 1 mM EDTA, 25 mM Sodium β-Glycerophosphate and 1 mM Sodium Orthovanadate, and supplemented with Complete Protease Inhibitor (Nippon Boehringer Ingelheim Co., Ltd.). The obtained suspension was homogenized three times in a polytron homogenizer (Kinematica) at 20,000 rpm for 30 sec. The obtained cell disruption solution was clarified by centrifugation at 31000×g for 60 min, and filtered through a 0.45 μm filter. The filtrate was passed through a column packed with 60 mL of Ni-NTA Super Flow Gel (QUIAGEN) at a flow rate of about 5 mL/min. The column was washed with buffer A (50 mM HEPES (pH 7.5) containing 0.3 M NaCl), further washed with buffer A containing 20 mM Imidazole, and eluted with buffer A containing 100 mM Imidazole. The eluate was concentrated with Vivaspin 20 (Vivascience) with a molecular weight cut off of 30K. The obtained concentrate was dialyzed against 50 mM HEPES (pH 7.5) containing 10 mM MgCl2, 2 mM Dithiothreitol, 10 mM Tripotassium Citrate and 0.3 M NaCl. […]
Consider `CC(=O)N[C@@H](C)COc1cnc(-c2nc3ccc(OCC4CC4(F)F)cc3o2)c(F)c1` (stereo partly drawn) [Example 110, Diastereomer of N-{(1S)-2-[(6-{6-[(2,2-difluorocyclopropyl)methoxy]-1,3-benzoxazol-2-yl}-5-fluoropyridin-3-yl)oxy]-1-methylethyl}acetamide (retention time: long)], for which the “ACC2 inhibitory rate at 10 μM (%)” value stood at 91%. Regarding `C[C@@H](COc1cnc(-c2nc3ccc(OCC4CC4(F)F)cc3o2)c(F)c1)NC(N)=O` (stereo partly drawn) [Example 112, Diastereomer of 1-{(1S)-2-[(6-{6-[(2,2-difluorocyclopropyl)methoxy]-1,3-benzoxazol-2-yl}-5-fluoropyridin-3-yl)oxy]-1-methylethyl}urea (retention time: long)], the “ACC2 inhibitory rate at 10 μM (%)” value is 100%.

The test is the same for the next values; noted with them: 10 μM test compound; 20 min preincubation at 30° C., 20 min reaction; read-out: ACC2 inhibitory rate at 10 μM (%).
`CC(=O)N[C@@H](C)COc1ccc(-c2nc3ccc(OCC(C)(F)F)cc3o2)nc1` [Example 30]: the inhibition at 10 µM amounted to 100%.

In the case of `C[C@@H](COc1ccc(-n2cc3ccc(OCC4CC4)cc3n2)cc1)NC(=O)N(C)C` [Example 63, 3-[(1S)-2-{4-[6-(cyclopropylmethoxy)-2H-indazol-2-yl]phenoxy}-1-methylethyl]-1,1-dimethylurea], the inhibition at 10 µM was 93%.

For the compound `CC(=O)N[C@@H](C)COc1cnc(-c2nc3ccc(OCC4CC4(F)F)cc3o2)c(F)c1` (stereo partly drawn) [Example 109, Diastereomer of N-{(1S)-2-[(6-{6-[(2,2-difluorocyclopropyl)methoxy]-1,3-benzoxazol-2-yl}-5-fluoropyridin-3-yl)oxy]-1-methylethyl}acetamide (retention time: short)], the inhibition at 10 µM worked out at 95%. Consider `CC(=O)N[C@@H](C)COc1ccc(-n2nc3cc(OCC4CC4)ccc3c2F)cc1` [Example 73, N-[(1S)-2-{4-[6-(cyclopropylmethoxy)-3-fluoro-2H-indazol-2-yl]phenoxy}-1-methylethyl]acetamide], for which the inhibition at 10 µM came to 99%.

In the case of `CC(=O)N[C@@H](C)COc1cc(F)c(-n2cc3ccc(OCC4CC4)cc3n2)cc1F` [Example 70, N-[(1S)-2-{4-[6-(cyclopropylmethoxy)-2H-indazol-2-yl]-2,5-difluorophenoxy}-1-methylethyl]acetamide], the inhibition at 10 µM was 93%. Take `CC(=O)N[C@@H](C)COc1ccc(-n2cc3ccc(OCC4CC4)cc3n2)cc1` [Example 13, N-[(1S)-2-{4-[6-(cyclopropylmethoxy)-2H-indazol-2-yl]phenoxy}-1-methylethyl]acetamide]: the inhibition at 10 µM worked out at 94%. On to `CC(=O)N[C@@H](C)COc1ccc(-c2nc3ccc(OCC4CC4)cn3c2F)cc1` [Example 92, N-[(1S)-2-{4-[6-(cyclopropylmethoxy)-3-fluoroimidazo[1,2-a]pyridin-2-yl]phenoxy}-1-methylethyl]acetamide], for which the inhibition at 10 µM was 93%.

`COC(=O)N[C@@H](C)COc1ccc(-c2nc3ccc(OCC4CC4)cc3o2)nc1` [Example 17, methyl [(1S)-2-({6-[6-(cyclopropylmethoxy)-1,3-benzoxazol-2-yl]pyridin-3-yl}oxy)-1-methylethyl]carbamate]: the inhibition at 10 µM amounted to 90%. `CC(=O)N[C@@H](C)COc1ccc(-n2cc3cc(OCC4CC4)ccc3n2)cc1` [Example 12, N-[(1S)-2-{4-[5-(cyclopropylmethoxy)-2H-indazol-2-yl]phenoxy}-1-methylethyl]acetamide]: the inhibition at 10 µM stood at 103%. Take `CCOc1ccc2c(F)c(-c3ccc(OC[C@H](C)NC(C)=O)cc3F)nn2c1` [Example 100, N-{(1S)-2-[4-(6-ethoxy-3-fluoropyrazolo[1,5-a]pyridin-2-yl)-3-fluorophenoxy]-1-methylethyl}acetamide]: the inhibition at 10 µM turned out to be 90%. Turning to `CNC(=O)N[C@@H](C)COc1ccc(-c2nc3ccc(OCC4CC4)cc3o2)nc1` [Example 16, 1-[(1S)-2-({6-[6-(cyclopropylmethoxy)-1,3-benzoxazol-2-yl]pyridin-3-yl}oxy)-1-methylethyl]-3-methylurea], the inhibition at 10 µM was found to be 93%. For the compound `CC(=O)N[C@@H](C)COc1cc(-c2nc3cc(OC(C)C)ccc3o2)on1` [Example 33, N-[(1S)-1-methyl-2-({5-[5-(1-methylethoxy)-1,3-benzoxazol-2-yl]isoxazol-3-yl}oxy)ethyl]acetamide], the inhibition at 10 µM worked out at 85%.

Turning to `CCOc1ccc2cn(-c3ccc(OC[C@H](C)NC(C)=O)cc3)nc2c1` [Example 26, N-{(1S)-2-[4-(6-ethoxy-2H-indazol-2-yl)phenoxy]-1-methylethyl}acetamide], the inhibition at 10 µM is 95%. As to `CC(=O)N[C@@H](C)COc1ccc(-c2nn3cc(OCC4CC4)ccc3c2F)c(F)c1` [Example 102, N-[(1S)-2-{4-[6-(cyclopropylmethoxy)-3-fluoropyrazolo[1,5-a]pyridin-2-yl]-3-fluorophenoxy}-1-methylethyl]acetamide], the inhibition at 10 µM turned out to be 99%. Turning to `C[C@@H](COc1cnc(-c2nc3ccc(OCC4CC4(F)F)cc3o2)c(F)c1)NC(N)=O` (stereo partly drawn) [Example 97], the inhibition at 10 µM worked out at 95%. In the case of `CC(=O)N[C@@H](C)COc1ccc(-c2cc3ccc(OCC4CC4)cn3n2)c(F)c1` [Example 104, N-[(1S)-2-{4-[6-(cyclopropylmethoxy)pyrazolo[1,5-a]pyridin-2-yl]-3-fluorophenoxy}-1-methylethyl]acetamide], the inhibition at 10 µM came to 102%. As for `CC(=O)N[C@@H](C)COc1ccc(-c2nc3ccc(OCC4CC4)cc3o2)cc1` [Example 3, N-[(1S)-2-{4-[6-(cyclopropylmethoxy)-1,3-benzoxazol-2-yl]phenoxy}-1-methylethyl]acetamide], the inhibition at 10 µM is 99%. With `CCOc1ccc2cc(-c3ccc(OC[C@H](C)NC(C)=O)cc3)nn2c1` [Example 85, N-{(1S)-2-[4-(6-ethoxypyrazolo[1,5-a]pyridin-2-yl)phenoxy]-1-methylethyl}acetamide], the inhibition at 10 µM is 93%.

For `CCOc1ccc2cn(-c3ccc(OC[C@H](C)NC(C)=O)cc3F)nc2c1` [Example 25, N-{(1S)-2-[4-(6-ethoxy-2H-indazol-2-yl)-3-fluorophenoxy]-1-methylethyl}acetamide monohydrate], the inhibition at 10 µM was found to be 90%.

As to `CC(=O)N[C@@H](C)COc1ccc(-c2nc3ccc(OCC4CC4)cn3n2)cc1` [Example 89, N-[(1S)-2-{4-[6-(cyclopropylmethoxy)[1,2,4]triazolo[1,5-a]pyridin-2-yl]phenoxy}-1-methylethyl]acetamide], the inhibition at 10 µM was 94%.

Regarding `CC(=O)N[C@@H](C)COc1ccc(C2Cc3ccc(OCC4CC4)cc3O2)nc1` (stereo partly drawn) [Example 24, N-[(1S)-2-({6-[6-(cyclopropylmethoxy)-2,3-dihydro-1-benzofuran-2-yl]pyridin-3-yl}oxy)-1-methylethyl]acetamide], the inhibition at 10 µM was found to be 90%. In the case of `CC(=O)N[C@@H](C)COc1n[nH]c(-c2nc3ccc(OCC4CC4)cc3o2)c1F` [Example 9, N-[(1S)-2-({5-[6-(cyclopropylmethoxy)-1,3-benzoxazol-2-yl]-4-fluoro-1H-pyrazol-3-yl}oxy)-1-methylethyl]acetamide], the inhibition at 10 µM is 98%.
